Test results from patent publication US20110152194A1, “CHIMERIC NATRIURETIC POLYPEPTIDES AND METHODS FOR INHIBITING CARDIAC REMODELING” (MAYO FOUNDATION FOR MEDICAL EDUCATION AND RESEARCH, priority 2008, published 2011).
Values joined by “and” are separate entries in the source; they are usually repeats but may differ in a detail not shown here. Equal entries are not always repeated. Where two headings read alike, the source gives them in different places.

Key:
normal anesthetized dogs = details: dog, in vivo
male mongrel dogs = experiment: In vivo actions of CD-NP, CNP and CNP-C continuous i.v. infusion in anesthetized dogs; set-up: species or system dog; details: for ANG II, angiotensin II / Aldosterone / CO, cardiac output / DFRNa, distal fractional reabsorption of Na+ / GFR, glomerular filtration rate / MAP, mean arterial pressure / PAP, pulmonary arterial pressure / PCWP, pulmonary capillary wedge pressure / PFRNa, proximal fractional reabsorption of Na+ / PRA, plasma renin activity / PVR, pulmonary vascular resistance / RAP, right atrial pressure / RBF / RVR, renal vascular resistance / SVR, systemic vascular resistance: dogs, 75 min i.v. infusion of CD-NP 50 ng/kg/min or equimolar CNP
[1] = in vivo; cited from earlier work

B-type natriuretic peptide [BNP]
GFR (normal anesthetized dogs): lack of increase

GLSKGCFGLKLDRIGSMSGLGC [CNP]
ANG II, angiotensin II (male mongrel dogs; 30 min I): 7.5 ± 1.4 pg/mL
Aldosterone (male mongrel dogs; 30 min I): 21.1 ± 3.8 ng/dL
CO, cardiac output (male mongrel dogs; 30 min I): 3.3 ± 0.3 L/min
DFRNa, distal fractional reabsorption of Na+ (male mongrel dogs; 30 min I): 97 ± 0.4%
GFR, glomerular filtration rate (male mongrel dogs; 30 min I): 52.7 ± 6.7 mL/min
MAP, mean arterial pressure (male mongrel dogs; 30 min I): 127 ± 4 mmHg
PAP, pulmonary arterial pressure (male mongrel dogs; 30 min I): 12.8 ± 0.8 mmHg
PCWP, pulmonary capillary wedge pressure (male mongrel dogs; 30 min I): 4.6 ± 0.5 mmHg
PFRNa, proximal fractional reabsorption of Na+ (male mongrel dogs; 30 min I): 73 ± 2%
PRA, plasma renin activity (male mongrel dogs; 30 min I): 1.9 ± 0.6 ng/mL/h
PVR, pulmonary vascular resistance (male mongrel dogs; 30 min I): 1.9 ± 0.2 mmHgL^−1 · min
RAP, right atrial pressure (male mongrel dogs; 30 min I): 2.5 ± 0.3 mmHg
RBF (male mongrel dogs; 30 min I): 294.2 ± 30.8 mL/min
RVR, renal vascular resistance (male mongrel dogs; 30 min I): 0.47 ± 0.06 × 10^−3 mmHg · L^−1 · min
SVR, systemic vascular resistance (male mongrel dogs; 30 min I): 39.9 ± 2.7 mmHgL^−1 · min
ANG II, angiotensin II (male mongrel dogs; 60 min I): 10.4 ± 2.8 pg/mL
Aldosterone (male mongrel dogs; 60 min I): 21.4 ± 3.7 ng/dL
CO, cardiac output (male mongrel dogs; 60 min I): 2.8 ± 0.3 L/min
DFRNa, distal fractional reabsorption of Na+ (male mongrel dogs; 60 min I): 97 ± 0.9%
GFR, glomerular filtration rate (male mongrel dogs; 60 min I): 49.5 ± 4.2 mL/min
MAP, mean arterial pressure (male mongrel dogs; 60 min I): 128 ± 4 mmHg
PAP, pulmonary arterial pressure (male mongrel dogs; 60 min I): 13.2 ± 0.7 mmHg
PCWP, pulmonary capillary wedge pressure (male mongrel dogs; 60 min I): 5.6 ± 0.7 mmHg
PFRNa, proximal fractional reabsorption of Na+ (male mongrel dogs; 60 min I): 72 ± 1%
PRA, plasma renin activity (male mongrel dogs; 60 min I): 2.5 ± 0.7 ng/mL/h
PVR, pulmonary vascular resistance (male mongrel dogs; 60 min I): 2.1 ± 0.3 mmHgL^−1 · min
RAP, right atrial pressure (male mongrel dogs; 60 min I): 2.9 ± 0.3 mmHg
RBF (male mongrel dogs; 60 min I): 277.8 ± 29.2 mL/min
RVR, renal vascular resistance (male mongrel dogs; 60 min I): 0.49 ± 0.06 × 10^−3 mmHg · L^−1 · min
SVR, systemic vascular resistance (male mongrel dogs; 60 min I): 46.9 ± 2.7^† mmHgL^−1 · min
ANG II, angiotensin II (male mongrel dogs; Post-I): 14.4 ± 5.0 pg/mL
Aldosterone (male mongrel dogs; Post-I): 22.0 ± 4.2 ng/dL
CO, cardiac output (male mongrel dogs; Post-I): 2.6 ± 0.1 L/min
DFRNa, distal fractional reabsorption of Na+ (male mongrel dogs; Post-I): 97 ± 0.8%
GFR, glomerular filtration rate (male mongrel dogs; Post-I): 48.8 ± 5.6 mL/min
MAP, mean arterial pressure (male mongrel dogs; Post-I): 128 ± 4 mmHg
PAP, pulmonary arterial pressure (male mongrel dogs; Post-I): 13.9 ± 0.7 mmHg
PCWP, pulmonary capillary wedge pressure (male mongrel dogs; Post-I): 6.4 ± 0.8 mmHg
PFRNa, proximal fractional reabsorption of Na+ (male mongrel dogs; Post-I): 73 ± 2%
PRA, plasma renin activity (male mongrel dogs; Post-I): 3.2 ± 1.0 ng/mL/h
PVR, pulmonary vascular resistance (male mongrel dogs; Post-I): 2.2 ± 0.4 mmHgL^−1 · min
RAP, right atrial pressure (male mongrel dogs; Post-I): 3.5 ± 0.5 mmHg
RBF (male mongrel dogs; Post-I): 272.0 ± 24.5 mL/min
RVR, renal vascular resistance (male mongrel dogs; Post-I): 0.49 ± 0.06 × 10^−3 mmHg · L^−1 · min
SVR, systemic vascular resistance (male mongrel dogs; Post-I): 48.7 ± 2.5^† mmHgL^−1 · min
ANG II, angiotensin II (male mongrel dogs; Pre-I (pre-infusion)): 11.7 ± 4.7 pg/mL
Aldosterone (male mongrel dogs; Pre-I (pre-infusion)): 15.1 ± 4.2 ng/dL
CO, cardiac output (male mongrel dogs; Pre-I (pre-infusion)): 3.8 ± 0.3 L/min
DFRNa, distal fractional reabsorption of Na+ (male mongrel dogs; Pre-I (pre-infusion)): 98 ± 0.6%
GFR, glomerular filtration rate (male mongrel dogs; Pre-I (pre-infusion)): 52.2 ± 5.3 mL/min
MAP, mean arterial pressure (male mongrel dogs; Pre-I (pre-infusion)): 123 ± 4 mmHg
PAP, pulmonary arterial pressure (male mongrel dogs; Pre-I (pre-infusion)): 13.1 ± 0.8 mmHg
PCWP, pulmonary capillary wedge pressure (male mongrel dogs; Pre-I (pre-infusion)): 5.0 ± 0.5 mmHg
PFRNa, proximal fractional reabsorption of Na+ (male mongrel dogs; Pre-I (pre-infusion)): 80 ± 3%
PRA, plasma renin activity (male mongrel dogs; Pre-I (pre-infusion)): 2.9 ± 1.4 ng/mL/h
PVR, pulmonary vascular resistance (male mongrel dogs; Pre-I (pre-infusion)): 1.8 ± 0.2 mmHgL^−1 · min
RAP, right atrial pressure (male mongrel dogs; Pre-I (pre-infusion)): 2.6 ± 0.3 mmHg
RBF (male mongrel dogs; Pre-I (pre-infusion)): 273.4 ± 25.5 mL/min
RVR, renal vascular resistance (male mongrel dogs; Pre-I (pre-infusion)): 0.49 ± 0.07 × 10^−3 mmHg · L^−1 · min
SVR, systemic vascular resistance (male mongrel dogs; Pre-I (pre-infusion)): 33.8 ± 2.9 mmHgL^−1 · min
half-life [1]: about a minute and a half

GLSKGCFGLKLDRIGSMSGLGCGKSLG [CNP-C]
ANG II (male mongrel dogs; dog, in vivo, iv): did not result in any significant changes
GFR (male mongrel dogs; dog, in vivo, iv): did not result in any significant changes
PRA (male mongrel dogs; dog, in vivo, iv): did not result in any significant changes
Pulmonary capillary wedge pressure (male mongrel dogs; dog, in vivo, iv): 4.3±0.8 mmHg and 3.4±0.8 mmHg
diuresis (male mongrel dogs; dog, in vivo, iv): did not result in any significant changes
mean arterial pressure (male mongrel dogs; dog, in vivo, iv): 132±6 mmHg and 128±5 mmHg
natriuresis (male mongrel dogs; dog, in vivo, iv): did not result in any significant changes
plasma cGMP (male mongrel dogs; dog, in vivo, iv): did not result in any significant changes
urinary cGMP excretion (male mongrel dogs; dog, in vivo, iv): did not result in any significant changes

PSLRDPRPNAPSTSA [C-terminus]
DFRNa, distal fractional sodium reabsorption (normal anesthetized dogs): 98.7 ± 0.3%
GFR, glomerular filtration rate (normal anesthetized dogs): 34 ± 6 mL/min
PFRNa, proximal fractional sodium reabsorption (normal anesthetized dogs): 77.9 ± 2.7%
RBF, renal blood flow (normal anesthetized dogs): 213 ± 19 mL/min
UcGMPV, urinary cGMP excretion (normal anesthetized dogs): 1674 ± 213 pmol/min
DFRNa, distal fractional sodium reabsorption (normal anesthetized dogs; iv): 97.8 ± 0.5%
GFR, glomerular filtration rate (normal anesthetized dogs; iv): 44 ± 6 mL/min
PFRNa, proximal fractional sodium reabsorption (normal anesthetized dogs; iv): 71.0 ± 2.6 %
RBF, renal blood flow (normal anesthetized dogs; iv): 198 ± 27 mL/min
UcGMPV, urinary cGMP excretion (normal anesthetized dogs; iv): 2275 ± 231 pmol/min
natriuretic and diuretic action (urinary excretion of sodium, urine flow) (normal anesthetized dogs; iv): natriuretic and diuretic
